Test results published in US6599943B1, “Use of hydroxyguanidines” (WaPharm AB, priority 1996, dated 2003).

How the values were obtained:
[1] = system: bovine milk xanthine oxidase; test: Hydroxyguanidine reducing activity of bovine xanthine oxidase, simplified radioligand binding assay; format: biochemical
Experimental: (§1) In a simplified form of the assay the α2-adrenoceptor containing membranes and the [^3H]RX821002 radioligand were added together with the hydroxyguanidine reducing activity and the hydroxyguanidine, and the mixture then incubated for a suitable time. In this implementation of the assay the reduction of the hydroxyguanidine occurred simultaneously with the assay of the […]. Example of this variant of the assay is given in Examples 4 and 8.
(§2) Hydroxyguanidine reducing activity of bovine xanthine oxidase.

[2] = molecular target: T1, bovine milk xanthine oxidase (Bos taurus, UniProt P80457); test: as above; format: biochemical; conditions: 100 μM xanthine versus xanthine absent
Experimental: as §1, §2
Target sequence in this assay (P80457 2-1332): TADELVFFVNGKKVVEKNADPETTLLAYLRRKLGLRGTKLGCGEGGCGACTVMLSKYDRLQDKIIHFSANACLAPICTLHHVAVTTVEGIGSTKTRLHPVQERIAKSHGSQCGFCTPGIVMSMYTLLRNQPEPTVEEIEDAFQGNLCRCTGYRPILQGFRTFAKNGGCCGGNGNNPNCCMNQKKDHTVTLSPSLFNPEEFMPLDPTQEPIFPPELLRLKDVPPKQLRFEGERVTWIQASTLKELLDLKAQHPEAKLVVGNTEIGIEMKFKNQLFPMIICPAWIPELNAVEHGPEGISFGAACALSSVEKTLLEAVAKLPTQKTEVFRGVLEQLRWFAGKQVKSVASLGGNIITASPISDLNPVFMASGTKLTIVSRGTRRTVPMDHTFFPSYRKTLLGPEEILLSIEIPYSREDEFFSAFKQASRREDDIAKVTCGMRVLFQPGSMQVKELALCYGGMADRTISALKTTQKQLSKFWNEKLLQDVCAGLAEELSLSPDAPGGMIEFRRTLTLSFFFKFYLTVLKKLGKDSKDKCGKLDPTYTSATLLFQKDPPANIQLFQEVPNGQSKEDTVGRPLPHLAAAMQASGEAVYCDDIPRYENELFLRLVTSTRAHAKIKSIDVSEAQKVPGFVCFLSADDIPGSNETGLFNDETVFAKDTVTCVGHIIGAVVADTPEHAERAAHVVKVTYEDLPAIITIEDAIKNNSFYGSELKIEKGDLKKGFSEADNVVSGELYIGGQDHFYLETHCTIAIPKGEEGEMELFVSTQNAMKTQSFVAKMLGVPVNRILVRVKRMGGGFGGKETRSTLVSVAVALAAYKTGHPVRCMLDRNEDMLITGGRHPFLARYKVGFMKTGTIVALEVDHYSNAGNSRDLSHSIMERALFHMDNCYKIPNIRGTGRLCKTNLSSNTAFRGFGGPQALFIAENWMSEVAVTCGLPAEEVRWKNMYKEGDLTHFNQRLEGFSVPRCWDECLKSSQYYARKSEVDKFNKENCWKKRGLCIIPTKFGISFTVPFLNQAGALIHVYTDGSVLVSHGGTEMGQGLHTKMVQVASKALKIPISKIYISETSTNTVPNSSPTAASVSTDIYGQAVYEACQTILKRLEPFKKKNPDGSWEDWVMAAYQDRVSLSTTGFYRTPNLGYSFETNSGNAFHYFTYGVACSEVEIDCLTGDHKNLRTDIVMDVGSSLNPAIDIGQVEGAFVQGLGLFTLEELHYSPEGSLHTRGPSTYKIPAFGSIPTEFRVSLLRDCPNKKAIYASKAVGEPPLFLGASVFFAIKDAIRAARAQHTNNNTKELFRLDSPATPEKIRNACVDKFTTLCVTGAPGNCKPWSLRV

[3] = molecular target: T1, bovine milk xanthine oxidase
Target sequence in this assay (P80457 2-1332): as above
Experimental: Capacity of allopurinol to inhibit the reduction of hydroxyguanidines by xanthine oxidase. […] In these tests varying amounts of guanoxabenz was added to assays yielding 150 μl final volumes and containing final concentrations 0.004 units/ml of bovine milk xanthine oxidase (Sigma, St. Louis, MO., USA), 100 μM xanthine, 20 μM allopurinol, 50 pM α2-adrenoceptors (in HT29 cell membranes), 33 mM Tris HCl, 1 mM EDTA, pH 7.5, and incubating for 1 hour at 25° C.

rat spleen cytosol = test: Hydroxyguanidine reducing activity of spleen cytosol by radioligand binding assay; format: biochemical; conditions: 70 μM guanoxabenz, 1 hr at 25° C.
Experimental: Assay of hydroxyguanidine reducing activity by radioligand binding. The assay is based on the possibility to measure the affinity of ligands to α2-adrenoceptors by using radioligand binding. In a typical experiment small aliquots of the sample to be measured is added to an assay containing membranes rich in α2-adrenoceptors as well as a suitable concentration of a radioligand capable of binding to α2-adrenoceptors. After the assay mixture has been incubated for a suitable time, to achieve equilibrium, the amount of radioligand bound to the membranes is measured by washing and filtering on GF/C glass fibre filters using methods that are well described in literature, and which are commonly referred to as radioligand binding. The ability of the hydroxyguanidine and its product to inhibit the binding of the radioligand to the α2-adrenoceptor constituted a measure of the hydroxyguanidine/guanidine activity of the reaction mixture. A preferred hydroxyguanidine is one which corresponding guanidine show substantially different affinity compared to the hydroxyguanidine itself. A most preferred example of such a hydroxyguanidine is guanoxabenz.
In a more more exact version of the assay the “apparent affinity” of the mixture of hydroxyguanidine and guanidine-product is measured by constructing a complete competition curve for each sample to be measured. This is achieved by adding different dilutions of the reaction mixture to the radioligand binding assay. Since the sum of the concentration of the hydroxyguanidine and the guanidine product is known, the “apparent affinity” of the mixture can be calculated from the radioligand binding data using standard procedures for radioligand binding data analysis (Uhlén and Wikberg,1991). For the purpose of the present studies the apparent affinity of the reaction mixture was estimated from competition data by using a radioligand binding analysis computer software package (Wan System AB, Trillvägen 13, S-905 92 Umeå, Sweden). The fraction (q) of guanidine product obtained is then given by: [formula] […]

[4] = molecular target: T1, bovine milk xanthine oxidase; test: Capacity to sustain oxidation of xanthine by xanthine oxidase in the absence of oxygen, spectrophotometric; format: biochemical; design: host or cells: bovine milk; conditions: 50 μM hydroxyguanidine, 50 μM xanthine, 0.05 units/ml xanthine oxidase, anaerobic, pH 7.5, 20° C., blank subtracted
Experimental: Capacities of a series of hydroxyguanidine to sustain the oxidation of xanthine by xanthine oxidase in the absence of oxygen. The capacities of various hydroxyguanidines to sustain the oxidation of xanthine was assayed by using a spectrophotometric method. In this method bovine milk xanthine oxidase was injected to a Helma® sealable cuvette for anaerobic application thereby creating 1 ml of a reaction mixture that contained reagents as follows: 50 μM of a hydroxyguanidine, 50 μM xanthine, 0.05 units/ml bovine milk xanthine oxidase, 50 mM Tris and 1.5 mM EDTA; the pH of the reaction mixture being 7.5, and the temperature 20° C. Anaerobic conditions were assured by pre-gassing all solutions used for 5-10 min, with nitrogen. The rate of formation of uric acid was monitored spectrophotometrically by measuring the increase in absorbance at 295 nm (the absorption maximum for uric acid) at intervals. The relative capacities of the hydroxyguanidines to sustain oxidation of xanthine were estimated from the derivative of the initial linear phase of the curves. To obtain blank readings an equal volume of the solvent of the hydroxyguanidine (water) was added to the reaction mixture in separate experiments and the initial rate of absorbance change was substracted from the rate readings of the tested hydroxyguanidine.
Exemplary initial rates for the rate of the support of the oxidation of xanthine obtained by assaying the exemplary hydroxyguanidines listed above by the method in the present example are furthermore given in Table 2: […]
Target sequence in this assay (P80457 whole entry): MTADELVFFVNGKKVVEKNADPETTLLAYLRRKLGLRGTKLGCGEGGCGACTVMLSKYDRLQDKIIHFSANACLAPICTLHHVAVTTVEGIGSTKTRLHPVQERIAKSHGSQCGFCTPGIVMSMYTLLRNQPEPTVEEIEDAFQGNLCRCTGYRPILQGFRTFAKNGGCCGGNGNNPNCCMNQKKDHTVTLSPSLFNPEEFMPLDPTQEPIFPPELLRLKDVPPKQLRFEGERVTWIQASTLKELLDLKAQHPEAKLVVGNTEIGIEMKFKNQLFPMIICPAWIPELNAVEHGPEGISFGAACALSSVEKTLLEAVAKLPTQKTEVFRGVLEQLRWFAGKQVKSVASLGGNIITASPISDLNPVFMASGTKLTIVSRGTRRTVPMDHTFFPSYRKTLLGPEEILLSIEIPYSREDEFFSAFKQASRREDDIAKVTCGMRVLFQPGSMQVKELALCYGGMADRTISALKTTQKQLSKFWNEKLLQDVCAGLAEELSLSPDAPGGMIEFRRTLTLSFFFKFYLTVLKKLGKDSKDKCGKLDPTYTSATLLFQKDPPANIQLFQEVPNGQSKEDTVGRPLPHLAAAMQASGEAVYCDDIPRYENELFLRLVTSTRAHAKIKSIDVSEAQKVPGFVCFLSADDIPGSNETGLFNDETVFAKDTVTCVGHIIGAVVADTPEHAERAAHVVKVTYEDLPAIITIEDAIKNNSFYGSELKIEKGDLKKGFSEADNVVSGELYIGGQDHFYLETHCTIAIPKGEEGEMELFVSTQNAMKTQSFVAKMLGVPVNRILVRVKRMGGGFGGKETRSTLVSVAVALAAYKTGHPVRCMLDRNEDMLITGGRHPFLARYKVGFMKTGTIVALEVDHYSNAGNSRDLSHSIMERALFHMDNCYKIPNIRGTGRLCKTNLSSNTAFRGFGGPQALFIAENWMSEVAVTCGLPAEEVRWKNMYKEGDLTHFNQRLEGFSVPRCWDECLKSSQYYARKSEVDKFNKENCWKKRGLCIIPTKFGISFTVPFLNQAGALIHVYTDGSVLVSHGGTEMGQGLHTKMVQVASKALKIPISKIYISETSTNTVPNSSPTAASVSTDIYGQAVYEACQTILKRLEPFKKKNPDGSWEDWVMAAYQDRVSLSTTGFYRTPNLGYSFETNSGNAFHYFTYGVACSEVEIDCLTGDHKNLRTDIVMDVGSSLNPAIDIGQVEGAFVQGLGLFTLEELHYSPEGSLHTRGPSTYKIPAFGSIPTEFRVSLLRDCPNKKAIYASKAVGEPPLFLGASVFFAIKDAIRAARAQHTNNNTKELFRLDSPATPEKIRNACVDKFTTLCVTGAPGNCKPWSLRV

[5] = molecular target: T1, bovine milk xanthine oxidase; test: Oxidation of xanthine to uric acid by xanthine oxidase in absence and presence of oxygen, spectrophotometric; format: biochemical; design: host or cells: bovine milk; conditions: 50 μM guanoxabenz, 50 μM xanthine; both in the absence of oxygen (nitrogen) and in the presence of 20% oxygen
Experimental: Capacity of hydroxyguanidines to sustain oxidation of xanthine by xanthine oxidase in the absence and in the presence of oxygen. The capacity of hydroxyguanidines to sustain the oxidation of xanthine to uric acid in the absence and presence of oxygen was assayed by using a spectrophotometric method. In this method bovine milk xanthine oxidase was injected to a Helma® sealable cuvette for anaerobic applications thereby creating 1 ml of a reaction mixture that contained reagents as follows: 50 μM of a hydroxyguanidine, 50 μM xanthine, 0.05 units/ml bovine milk xanthine oxidase, 50 mM Tris and 1.5 mM EDTA; the pH of the reaction mixture being 7.5, and the temperature being 20° C. Anaerobic conditions were assured by pre-gassing all solutions used for 5-10 min, with nitrogen whereas aerobic conditions was assured by exposing the solutions to air. The rate of formation of uric acid was monitored spectrophotometrically by measuring the increase in absorbance at 295 nm (the absorption maximum for uric acid) at timed intervals. In FIG. 5 are shown examplary recordings from these tests. In this test the hydroxyguanidine was guanoxabenz.
Target sequence in this assay (P80457 whole entry): as above

With `N=C(NO)NN=Cc1c(Cl)cccc1Cl` [Guanoxabenz, 2(2,6-dichlorophenyl)methylene-N-hydroxyhydrazine carboxi-imidamide] the “guanoxabenz converted to guanabenz” value ([1]; in the absence of xanthine) was “none”, the “conversion of guanoxabenz to guanabenz” value ([1]; in the presence of xanthine) was “about 88%” and the “increase in the apparent affinity on addition of xanthine” value [2] was “about 40 fold”. The “conversion of guanoxabenz to guanabenz” value ([3]; in the absence of allopurinol) was “about 88%”, the “guanoxabenz converted to guanabenz” value ([3]; in the presence of allopurinol (20 μM)) was “none” and the “concentration of guanabenz in the sample” value (rat spleen cytosol) was 17.5 µM. The “conversion of guanoxabenz to guanabenz” value (rat spleen cytosol) was 25%, the “q (fraction of guanidine product)” value (rat spleen cytosol) was 0.25 and the “V = 1000 × (Δabs 295 nm) min^−1 (initial rate of the support of the oxidation of xanthine)” value [4] was 40 1000 × (Δabs 295 nm) min^−1. For the same compound, the “rate of the formation of uric acid (absorbance at 295 nm)” value [5] was “substantial increase”.
